Data on two molecules can be found in PMC8357487 (Current Research in Pharmacology and Drug Discovery, 2021).

Data set [1] is described as follows: Cytotoxicity, MTS method, Calu-3. The class given is cell-based. As to conditions: human, Calu-3 cells.
Data set [2] can be described thus: Cytotoxicity, MTS method, Huh-7. As to conditions: human, Huh-7 cells. The data set is classed as cell-based, human.
The subject of data set [3] is SARS-CoV-2. The following applies: Caco-2 cells; ref Li et al., 2021a; cited from earlier work.
A short description of data set [4]: Cytotoxicity, MTS method, Vero CCL-81. The data set is classed as cell-based. The following applies: African monkey, Vero CCL-81 cells.
Data set [5] is described as follows: Cytotoxicity, MTS method, Caco-2. The class given is cell-based. As to conditions: human, Caco-2 cells.
Another data set has as its system icSARS-CoV-2-mNG. Briefly: microbe, parasite or virus in culture. The data set is classed as cell-based, SARS-CoV-2. The following applies: for EC50: Severe acute respiratory syndrome coronavirus 2, Caco-2, 48 h, read-out: mean EC50, icSARS-CoV-2-mNG inhibition assay.
The test system of data set [6] is SARS-CoV-2. Briefly: microbe, parasite or virus in culture. The class given is cell-based.
The test system of another data set is Huh-7 cells. Briefly: Cytotoxicity, MTS method, Huh-7. The data set is classed as cell-based, human. As to conditions: MTS.
For data set [7] the following is noted: humans; ref Humeniuk et al., 2020; cited from earlier work.
The conditions of data set [8]: monkeys; ref Warren et al., 2016; cited from earlier work.
[9] abbreviates: Severe acute respiratory syndrome coronavirus 2, 48 h.
[10] abbreviates: Severe acute respiratory syndrome coronavirus 2, Caco-2, 72 h.
The mark [11] stands for this setting: Severe acute respiratory syndrome coronavirus 2, Calu-3, 72 h.

SMILES strings stand for the structures. Read-outs that look alike come from different tables or passages of the source.

On to `N#C[C@@]1(c2ccc3c(N)ncnn23)O[C@H](CO)[C@@H](O)[C@H]1O` [GS-441524], for which the CC50 in data set [1], in data set [2], in [4] and in data set [5] was > 100000 nM in each case. The “Difference in EC50 between GS-441524 and remdesivir” value in the data set with SARS-CoV-2 [3] was 6 fold. Further, the “EC50 difference of GS-441524 compared to remdesivir, icSARS-CoV-2-mNG assay” value with icSARS-CoV-2-mNG (Caco-2 cells) is listed as 70 fold. In addition, the EC50 in the data set with icSARS-CoV-2-mNG was found to be 1300 nM; in the data set with SARS-CoV-2 [6] (setting [9]), 800 nM; in the data set on SARS-CoV-2 [6] (setting [10]), 80 nM; in the data set on SARS-CoV-2 [6] (setting [11]), 250 nM. The EC90 with SARS-CoV-2 [6] (setting [9]) was found to be 1600 nM; with SARS-CoV-2 [6] (setting [10]), 1420 nM; in the data set on SARS-CoV-2 [6] (setting [11]), 2350 nM.

As to `CCC(CC)COC(=O)[C@H](C)N[P@](=O)(OC[C@H]1O[C@@](C#N)(c2ccc3c(N)ncnn23)[C@H](O)[C@@H]1O)Oc1ccccc1` [Remdesivir], the figures for the CC50 in data set [1], in [2] and in data set [5] were 72800 nM, 2100 nM and > 100000 nM, respectively. In addition, the Cytotoxicity in words result in the data set on Huh-7 cells is “quite toxic”. The plasma half-life is listed as ~1 h in [7] and “about 0.4 h” in data set [8]. In addition, the EC50 was determined as 18 nM in the data set on icSARS-CoV-2-mNG, 700 nM in the data set on SARS-CoV-2 [6] (setting [9]), 1 nM in the data set on SARS-CoV-2 [6] (setting [10]) and 110 nM in the data set with SARS-CoV-2 [6] (setting [11]). The EC90 with SARS-CoV-2 [6] (setting [9]) came out at 1700 nM; in the data set on SARS-CoV-2 [6] (setting [10]) it was 22 nM; in the data set on SARS-CoV-2 [6] (setting [11]), 490 nM.
